Common to all, as to assay: biochemical
Holding throughout (type): binding

Assay [1] addresses T1, panel of 442 kinases (Homo sapiens, UniProt Q96GD4).
T1 construct: purchased Ambit Biosciences (scanMAXX KINOMEscan)
Conditions: AURKB; for remaining activity at 1 µM: read-out: % of control at 1 µM.

Assay [2] addresses T2, panel of 442 kinases (Homo sapiens, UniProt P15056, V600E).
T2 construct: purchased Ambit Biosciences (scanMAXX KINOMEscan)
Particulars: BRAF(V600E); for remaining activity at 1 µM: read-out: % of control at 1 µM.

Assay [3] addresses T3, panel of 442 kinases (Homo sapiens, UniProt Q14680).
T3 construct: purchased Ambit Biosciences (scanMAXX KINOMEscan)
Particulars: kinase MELK; for remaining activity at 1 µM: read-out: % of control at 1 µM.

In assay [4] the target is T4, panel of 442 kinases (Homo sapiens, UniProt Q06418).
T4 construct: purchased Ambit Biosciences (scanMAXX KINOMEscan)
T4 sequence (Q06418 41-890): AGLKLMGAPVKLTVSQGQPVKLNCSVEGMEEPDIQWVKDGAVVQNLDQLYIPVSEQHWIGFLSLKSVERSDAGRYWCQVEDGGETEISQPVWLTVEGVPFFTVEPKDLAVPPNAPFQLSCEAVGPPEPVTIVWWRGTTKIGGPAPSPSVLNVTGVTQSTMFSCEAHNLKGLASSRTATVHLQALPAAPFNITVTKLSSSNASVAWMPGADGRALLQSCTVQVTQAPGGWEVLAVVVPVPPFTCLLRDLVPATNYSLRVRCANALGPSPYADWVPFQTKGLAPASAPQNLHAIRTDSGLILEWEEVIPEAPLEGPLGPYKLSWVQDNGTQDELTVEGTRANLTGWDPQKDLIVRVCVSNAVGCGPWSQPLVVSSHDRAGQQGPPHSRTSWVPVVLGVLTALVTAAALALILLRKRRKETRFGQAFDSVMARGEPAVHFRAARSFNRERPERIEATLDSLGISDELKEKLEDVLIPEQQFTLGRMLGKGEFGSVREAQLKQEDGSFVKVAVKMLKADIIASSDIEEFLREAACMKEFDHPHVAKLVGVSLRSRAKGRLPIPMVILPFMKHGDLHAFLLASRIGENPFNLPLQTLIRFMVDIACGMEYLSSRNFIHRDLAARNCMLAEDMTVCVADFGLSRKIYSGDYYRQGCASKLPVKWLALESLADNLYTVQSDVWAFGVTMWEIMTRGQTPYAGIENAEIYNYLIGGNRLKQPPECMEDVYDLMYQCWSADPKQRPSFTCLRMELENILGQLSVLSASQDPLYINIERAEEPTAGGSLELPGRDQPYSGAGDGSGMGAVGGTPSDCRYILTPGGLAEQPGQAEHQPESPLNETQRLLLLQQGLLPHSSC
Conditions: kinase TYRO3; for remaining activity at 1 µM: read-out: TYRO3 (% of control at 1 µM).

Assay [5] deals with T5, panel of 442 kinases (Homo sapiens, UniProt Q8IU85).
T5 construct: purchased Ambit Biosciences (scanMAXX KINOMEscan)
T5 sequence (Q8IU85 whole entry): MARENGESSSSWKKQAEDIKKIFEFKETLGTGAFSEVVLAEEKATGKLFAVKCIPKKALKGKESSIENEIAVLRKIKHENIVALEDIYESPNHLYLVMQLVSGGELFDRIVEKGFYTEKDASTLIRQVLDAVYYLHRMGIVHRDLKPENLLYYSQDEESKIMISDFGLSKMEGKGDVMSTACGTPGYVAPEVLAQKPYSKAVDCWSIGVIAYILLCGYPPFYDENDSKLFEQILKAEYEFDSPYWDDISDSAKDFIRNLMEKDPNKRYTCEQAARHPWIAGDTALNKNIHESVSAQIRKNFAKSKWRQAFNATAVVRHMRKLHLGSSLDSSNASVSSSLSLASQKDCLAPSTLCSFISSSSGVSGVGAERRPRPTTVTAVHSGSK
Particulars: CAMK1D; for remaining activity at 1 µM: read-out: % of control at 1 µM.

Assay [6] addresses T6, panel of 442 kinases (Homo sapiens, UniProt O15075).
T6 construct: purchased Ambit Biosciences (scanMAXX KINOMEscan)
Conditions: DCAMKL1; for remaining activity at 1 µM: read-out: % of control at 1 µM.

The target in assay [7] is T7, panel of 442 kinases (Homo sapiens, UniProt P21802).
T7 construct: purchased Ambit Biosciences (scanMAXX KINOMEscan)
T7 sequence (P21802 22-821): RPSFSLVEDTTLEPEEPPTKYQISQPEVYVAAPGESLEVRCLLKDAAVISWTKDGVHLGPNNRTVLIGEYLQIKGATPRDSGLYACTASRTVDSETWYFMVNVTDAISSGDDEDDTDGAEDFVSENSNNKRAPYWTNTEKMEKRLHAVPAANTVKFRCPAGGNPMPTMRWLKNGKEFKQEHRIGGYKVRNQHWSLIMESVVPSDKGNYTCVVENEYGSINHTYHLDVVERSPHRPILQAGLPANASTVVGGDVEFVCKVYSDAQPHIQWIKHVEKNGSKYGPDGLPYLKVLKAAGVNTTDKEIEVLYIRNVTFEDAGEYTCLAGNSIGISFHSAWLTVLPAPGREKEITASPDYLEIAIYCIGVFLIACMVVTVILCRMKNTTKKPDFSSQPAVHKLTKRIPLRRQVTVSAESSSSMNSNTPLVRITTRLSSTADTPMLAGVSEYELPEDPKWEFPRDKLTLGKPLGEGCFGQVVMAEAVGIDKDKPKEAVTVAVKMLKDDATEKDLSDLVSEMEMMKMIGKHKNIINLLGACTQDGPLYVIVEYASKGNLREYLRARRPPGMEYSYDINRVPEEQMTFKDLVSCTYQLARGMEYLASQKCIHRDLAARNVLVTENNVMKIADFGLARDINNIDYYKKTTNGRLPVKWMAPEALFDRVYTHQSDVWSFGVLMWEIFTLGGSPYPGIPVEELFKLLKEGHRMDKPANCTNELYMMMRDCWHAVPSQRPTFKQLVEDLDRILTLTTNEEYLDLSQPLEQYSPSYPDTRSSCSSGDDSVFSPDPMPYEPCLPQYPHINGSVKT
Conditions: FGFR2; for remaining activity at 1 µM: read-out: % of control at 1 µM.

Assay [8] addresses T8, panel of 442 kinases (Homo sapiens, UniProt O60331).
T8 construct: purchased Ambit Biosciences (scanMAXX KINOMEscan)
Conditions: kinase PIP5K1C; for remaining activity at 1 µM: read-out: % of control at 1 µM.

The target of assay [9] is T9, panel of 442 kinases (Homo sapiens, UniProt Q9NRM7).
T9 construct: purchased Ambit Biosciences (scanMAXX KINOMEscan)
T9 sequence (Q9NRM7 1-1088): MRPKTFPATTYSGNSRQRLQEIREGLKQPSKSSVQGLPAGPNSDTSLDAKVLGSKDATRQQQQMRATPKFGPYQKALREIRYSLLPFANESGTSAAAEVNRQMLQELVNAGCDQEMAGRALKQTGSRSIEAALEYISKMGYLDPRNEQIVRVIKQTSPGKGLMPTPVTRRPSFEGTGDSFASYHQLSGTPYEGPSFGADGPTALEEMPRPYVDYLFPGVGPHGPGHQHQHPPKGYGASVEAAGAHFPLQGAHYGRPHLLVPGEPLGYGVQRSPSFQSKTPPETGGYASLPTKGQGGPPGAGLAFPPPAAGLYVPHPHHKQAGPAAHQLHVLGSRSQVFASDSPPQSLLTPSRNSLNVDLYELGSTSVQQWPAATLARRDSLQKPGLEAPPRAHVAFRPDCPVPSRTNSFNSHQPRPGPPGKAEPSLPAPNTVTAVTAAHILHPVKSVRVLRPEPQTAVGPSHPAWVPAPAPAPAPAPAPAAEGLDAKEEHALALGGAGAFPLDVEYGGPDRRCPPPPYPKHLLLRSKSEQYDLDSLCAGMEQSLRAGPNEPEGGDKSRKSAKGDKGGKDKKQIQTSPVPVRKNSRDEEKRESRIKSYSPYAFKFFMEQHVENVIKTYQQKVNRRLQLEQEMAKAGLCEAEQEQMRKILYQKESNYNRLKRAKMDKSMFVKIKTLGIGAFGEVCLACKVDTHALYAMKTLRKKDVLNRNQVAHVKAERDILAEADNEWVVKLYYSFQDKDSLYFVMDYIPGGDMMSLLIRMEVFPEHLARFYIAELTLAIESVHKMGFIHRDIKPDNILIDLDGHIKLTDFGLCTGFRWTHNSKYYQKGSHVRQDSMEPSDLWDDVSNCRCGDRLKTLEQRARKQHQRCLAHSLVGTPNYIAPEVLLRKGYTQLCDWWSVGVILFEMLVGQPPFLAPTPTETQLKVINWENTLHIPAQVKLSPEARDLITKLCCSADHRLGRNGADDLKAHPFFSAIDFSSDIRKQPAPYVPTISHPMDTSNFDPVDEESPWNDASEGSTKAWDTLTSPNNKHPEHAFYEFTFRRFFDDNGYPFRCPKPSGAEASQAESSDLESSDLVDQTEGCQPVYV
Particulars: kinase LATS2; for remaining activity at 1 µM: read-out: % of control at 1 µM.

Assay [10] addresses T10, panel of 442 kinases (Homo sapiens, UniProt P0C1S8).
T10 construct: purchased Ambit Biosciences (scanMAXX KINOMEscan)
Particulars: kinase WEE2; for remaining activity at 1 µM: read-out: WEE2 (% of control at 1 µM).

Setting [11] is: 10 µM, read-out: % of control at 10 µM.

T2 sequence (P15056 whole entry V600E): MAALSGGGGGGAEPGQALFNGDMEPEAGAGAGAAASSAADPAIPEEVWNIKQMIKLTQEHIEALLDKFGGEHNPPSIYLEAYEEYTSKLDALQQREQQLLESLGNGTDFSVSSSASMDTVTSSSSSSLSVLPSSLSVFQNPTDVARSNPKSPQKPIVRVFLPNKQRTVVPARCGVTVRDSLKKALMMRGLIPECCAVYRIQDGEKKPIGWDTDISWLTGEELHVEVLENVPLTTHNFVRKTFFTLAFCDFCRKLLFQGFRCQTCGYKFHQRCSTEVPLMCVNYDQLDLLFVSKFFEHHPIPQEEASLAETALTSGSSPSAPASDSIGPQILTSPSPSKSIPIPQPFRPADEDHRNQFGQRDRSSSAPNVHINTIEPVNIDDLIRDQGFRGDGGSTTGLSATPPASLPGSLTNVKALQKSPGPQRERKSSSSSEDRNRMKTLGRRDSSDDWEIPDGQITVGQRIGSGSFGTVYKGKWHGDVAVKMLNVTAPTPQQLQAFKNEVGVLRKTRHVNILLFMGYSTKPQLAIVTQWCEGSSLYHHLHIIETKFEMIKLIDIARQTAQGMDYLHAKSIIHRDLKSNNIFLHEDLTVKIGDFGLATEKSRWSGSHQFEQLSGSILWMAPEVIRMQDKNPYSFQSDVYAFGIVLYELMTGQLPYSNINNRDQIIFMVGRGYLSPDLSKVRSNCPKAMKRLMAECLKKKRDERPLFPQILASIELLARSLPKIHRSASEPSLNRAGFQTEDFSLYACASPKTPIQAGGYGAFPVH
T10 sequence (P0C1S8 whole entry): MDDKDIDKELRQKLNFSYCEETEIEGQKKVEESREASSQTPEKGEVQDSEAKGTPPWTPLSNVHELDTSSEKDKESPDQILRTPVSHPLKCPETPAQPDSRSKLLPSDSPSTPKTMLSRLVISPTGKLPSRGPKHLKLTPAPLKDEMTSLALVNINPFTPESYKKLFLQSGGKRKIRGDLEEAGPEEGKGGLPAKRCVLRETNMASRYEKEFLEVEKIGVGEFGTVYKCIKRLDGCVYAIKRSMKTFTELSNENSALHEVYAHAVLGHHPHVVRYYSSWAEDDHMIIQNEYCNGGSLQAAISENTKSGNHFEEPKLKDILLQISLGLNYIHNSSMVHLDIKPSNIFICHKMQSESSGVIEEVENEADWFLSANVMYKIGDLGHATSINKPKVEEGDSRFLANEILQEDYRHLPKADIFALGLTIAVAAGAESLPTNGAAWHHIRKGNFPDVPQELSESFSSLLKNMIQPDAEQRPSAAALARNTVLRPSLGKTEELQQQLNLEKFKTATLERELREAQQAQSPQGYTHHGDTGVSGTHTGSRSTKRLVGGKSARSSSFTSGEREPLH
T6 sequence (O15075 whole entry): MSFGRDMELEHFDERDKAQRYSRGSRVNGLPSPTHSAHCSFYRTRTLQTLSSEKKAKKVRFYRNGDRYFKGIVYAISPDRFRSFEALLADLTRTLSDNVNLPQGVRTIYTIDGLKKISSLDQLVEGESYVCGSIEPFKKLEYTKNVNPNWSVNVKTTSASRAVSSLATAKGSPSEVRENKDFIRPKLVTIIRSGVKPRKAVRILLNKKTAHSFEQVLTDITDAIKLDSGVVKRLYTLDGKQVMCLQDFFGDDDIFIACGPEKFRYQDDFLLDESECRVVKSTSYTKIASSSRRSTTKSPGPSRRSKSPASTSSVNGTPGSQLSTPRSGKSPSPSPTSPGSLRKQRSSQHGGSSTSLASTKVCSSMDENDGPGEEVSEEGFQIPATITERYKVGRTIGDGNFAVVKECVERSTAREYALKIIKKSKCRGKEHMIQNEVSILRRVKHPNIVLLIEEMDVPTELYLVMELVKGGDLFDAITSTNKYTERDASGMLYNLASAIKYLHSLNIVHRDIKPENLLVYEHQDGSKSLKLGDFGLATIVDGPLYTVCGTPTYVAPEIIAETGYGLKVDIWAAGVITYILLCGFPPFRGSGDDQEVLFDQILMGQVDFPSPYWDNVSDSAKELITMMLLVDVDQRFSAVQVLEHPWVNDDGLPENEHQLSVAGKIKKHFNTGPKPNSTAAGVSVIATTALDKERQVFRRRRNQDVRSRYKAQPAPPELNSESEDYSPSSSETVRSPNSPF
T1 sequence (Q96GD4 whole entry): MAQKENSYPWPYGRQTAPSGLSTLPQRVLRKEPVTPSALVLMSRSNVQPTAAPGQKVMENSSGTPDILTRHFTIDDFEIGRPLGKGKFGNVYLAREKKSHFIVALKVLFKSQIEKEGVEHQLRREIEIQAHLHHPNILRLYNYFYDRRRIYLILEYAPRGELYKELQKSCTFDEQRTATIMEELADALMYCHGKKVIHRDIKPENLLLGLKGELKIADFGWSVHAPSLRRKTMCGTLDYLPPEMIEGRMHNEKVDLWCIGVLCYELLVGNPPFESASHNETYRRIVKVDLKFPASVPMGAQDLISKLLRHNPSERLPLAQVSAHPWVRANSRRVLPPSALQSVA
T8 sequence (O60331 whole entry): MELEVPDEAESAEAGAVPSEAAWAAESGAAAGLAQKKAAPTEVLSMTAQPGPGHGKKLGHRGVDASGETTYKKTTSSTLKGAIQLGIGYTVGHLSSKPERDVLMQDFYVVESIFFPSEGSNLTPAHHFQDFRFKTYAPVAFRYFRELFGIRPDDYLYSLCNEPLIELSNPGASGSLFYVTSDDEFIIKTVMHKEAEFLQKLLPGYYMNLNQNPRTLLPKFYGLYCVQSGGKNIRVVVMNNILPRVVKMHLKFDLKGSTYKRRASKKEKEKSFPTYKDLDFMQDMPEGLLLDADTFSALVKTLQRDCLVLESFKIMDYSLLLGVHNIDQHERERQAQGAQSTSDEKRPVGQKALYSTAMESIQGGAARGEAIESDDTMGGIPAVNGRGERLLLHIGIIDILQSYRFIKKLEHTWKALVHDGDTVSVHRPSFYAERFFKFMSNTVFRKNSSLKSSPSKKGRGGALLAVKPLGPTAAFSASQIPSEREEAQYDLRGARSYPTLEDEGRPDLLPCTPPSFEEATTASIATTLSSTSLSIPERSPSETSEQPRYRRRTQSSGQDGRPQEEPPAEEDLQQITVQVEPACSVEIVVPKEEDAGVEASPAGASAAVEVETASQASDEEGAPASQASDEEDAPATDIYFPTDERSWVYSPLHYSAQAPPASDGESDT
T3 sequence (Q14680 whole entry): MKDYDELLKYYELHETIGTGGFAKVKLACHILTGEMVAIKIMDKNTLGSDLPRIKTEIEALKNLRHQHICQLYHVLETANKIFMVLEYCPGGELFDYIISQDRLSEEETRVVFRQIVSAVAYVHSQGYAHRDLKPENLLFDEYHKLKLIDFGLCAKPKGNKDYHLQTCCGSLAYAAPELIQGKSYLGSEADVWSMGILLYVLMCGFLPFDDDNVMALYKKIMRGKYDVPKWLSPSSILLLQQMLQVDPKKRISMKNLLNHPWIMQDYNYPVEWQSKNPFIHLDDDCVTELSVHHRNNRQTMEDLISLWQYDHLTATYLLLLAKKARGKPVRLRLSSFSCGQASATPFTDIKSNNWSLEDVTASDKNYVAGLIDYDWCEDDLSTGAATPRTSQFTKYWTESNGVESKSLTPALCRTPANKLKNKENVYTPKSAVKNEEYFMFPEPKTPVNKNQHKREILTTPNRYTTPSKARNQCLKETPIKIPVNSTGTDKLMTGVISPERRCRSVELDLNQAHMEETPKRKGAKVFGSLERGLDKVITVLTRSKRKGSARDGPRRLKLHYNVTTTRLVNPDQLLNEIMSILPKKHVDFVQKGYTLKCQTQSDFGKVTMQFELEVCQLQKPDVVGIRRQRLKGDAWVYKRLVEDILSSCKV

For the molecule `Nc1cc(C(F)(F)F)c(-c2cc(N3CCOCC3)nc(N3CCOCC3)n2)cn1` [Buparlisib], the remaining activity at 1 µM in assay [1] stood at 93%; in assay [2], 74%; in [3], 90%; in assay [4], 100%; in assay [5], 100%; in assay [6], 100%. Besides, the remaining activity at 1 µM in [7] is 98%; in assay [8], 55%; in assay [9], 75%; in assay [10], 100%. The remaining activity at 10 µM in assay [1] (setting [11]) amounted to 100%; in assay [2] (setting [11]) it was 44%; in assay [3] (setting [11]) it was 91%; in [4] (10 µM, read-out: TYRO3 (% of control at 10 µM)), 100%; in assay [5] (setting [11]) it was 100%; in assay [6] (setting [11]), 92%. Also, the remaining activity at 10 µM in assay [7] (setting [11]) worked out at 100%; in [8] (setting [11]), 63%; in [9] (setting [11]) it was 100%; in assay [10] (10 µM, read-out: WEE2 (% of control at 10 µM)) it was 100%.
Take `Cn1c(=O)n(-c2ccc(C(C)(C)C#N)cc2)c2c3cc(-c4cnc5ccccc5c4)ccc3ncc21` [Dactolisib, 2-methyl-2-[4-(3-methyl-2-oxo-8-quinolin-3-yl-2,3-dihydroimidazo[4,5-c]quinolin-1-yl)-phenyl] propionitrile]: the remaining activity at 1 µM is 82% in [2]; 45% in assay [3]; 100% in [4]; 87% in assay [5]; 100% in assay [6]; 100% in [7]. Further, the remaining activity at 1 µM in [8], in assay [9] and in assay [10] was 100% throughout.
In the case of `COc1ncc(-c2ccc3nccc(-c4ccnnc4)c3c2)cc1NS(=O)(=O)c1ccc(F)cc1F` [Omipalisib], the remaining activity at 1 µM in [1] was 100%; in [3], 100%; in assay [4], 100%; in [5], 87%; in [6], 92%; in [7] it was 100%. Moreover, the remaining activity at 1 µM worked out at 100% in [8], 100% in assay [9] and 84% in [10].
Turning to `FC(F)c1nc2ccccc2n1-c1nc(N2CCOCC2)nc(N2CCOCC2)n1` [ZSTK474, 2-(difluoromethyl)-1-[4,6-di(4-morpholinyl)-1,3,5-triazin-2-yl]-1H-benzimidazole], the remaining activity at 1 µM in assay [1] worked out at 90%; in assay [2], 56%; in [3] it was 100%; in assay [4] it was 88%; in assay [5], 100%; in [6] it was 97%. For the same molecule, the remaining activity at 1 µM in assay [7] worked out at 100%; in [8] it was 100%; in [9], 100%; in assay [10] it was 96%.

The record behind these values is article PMC5564600 (Oncotarget, 2017).
